Among the data in PMC6240685, “Strong Inhibitory Effect, Low Cytotoxicity and High Plasma Stability of Steroidal Inhibitors of N-Methyl-D-Aspartate Receptors With C-3 Amide Structural Motif” (Frontiers in Pharmacology, 2018) are IC50 values, retold here.

The test system of this assay is HepG2 cells. As to the kind of experiment: Mitotoxicity, XTT viability in glucose vs galactose medium. Particulars: Homo sapiens, HepG2, 24 h.

Like-named read-outs stand apart in the source and are kept apart here. Some results are limits rather than exact numbers.

On to `C[C@@]12CCC[C@H]1[C@@H]1CC[C@@H]3C[C@H](NC(=O)[C@@H](N)CC(=O)O)CC[C@]3(C)[C@H]1CC2` [Compound 6, (S)-3-amino-4-(((3R,5R,8S,9S,10S,13S,14S)-10,13-dimethylhexadecahydro-1H-cyclopenta[a]phenanthren-3-yl)amino)-4-oxobutanoic acid], for which the half-maximal inhibitory concentration (IC50) (read-out: Mitotoxicity IC50, 10 mM galactose) was > 200 µM and the IC50 (read-out: Mitotoxicity IC50, 25 mM glucose) was > 200 µM.
